# Measurements taken from patent US20210069145A1, “COMPOSITIONS AND METHODS FOR REDUCING A FATTY ACID DESATURATION INDEX IN A SUBJECT IN NEED THEREOF” (Amarin Pharmaceuticals Ireland Limited, priority 2013, published 2021).
# How the values were obtained:
# [1] = test system: Lipoprotein Particle Sizes; test: Lipoprotein particle sizes, 12-week double-blind placebo-controlled study of >96% E-EPA in statin-treated patients; assay type: in vivo, human; conditions: 12 weeks; for LDL particle size, % Δ / HDL particle size, % Δ / VLDL particle size, % Δ: median change from baseline; for LDL particle size, End / HDL particle size, End / VLDL particle size, End: median
# Procedure: (§1) A multi-center, placebo-controlled, randomized, double-blind, 12-week study was performed to evaluate the efficacy and safety of >96% E-EPA in patients with fasting triglyceride levels ≥200 mg/dl and <500 mg/dl despite statin therapy (the mean of two qualifying entry values needed to be ≥185 mg/dl and at least one of the values needed to be ≥200 mg/dl). The primary objective of the study was to determine the efficacy of >96% E-EPA 2 g daily and 4 g daily, compared to placebo, in lowering fasting TG levels in patients with high risk for cardiovascular disease and with fasting TG levels ≥200 mg/dl and <500 mg/dl, despite treatment to LDL-C goal on statin therapy.
# (§2) The population for this study was men and women >18 years of age with a body mass index ≤45 kg/m^2 with fasting TG levels greater than or equal to 200 mg/dl and less than 500 mg/dl and on a stable does of statin therapy (with or without ezetimibe). The statin was atorvostatin, rosuvastatin or simvastatin. The dose of statin must have been stable for ≥4 weeks prior to the LDL-C/TG baseline qualifying measurement for randomization. The statin dose was optimized such that the patients are at their LDL-C goal at the LDL-C/TG baseline qualifying measurements. The same statin at the same dose was continued until the study ended.
# Approximately 702 patients were randomized at approximately 80 centers in the U.S. The study was a 18- to 20-week, Phase 3, multi-center study consisting of 2 study periods: (1) A 6- to 8-week screening period that included a diet and lifestyle stabilization, a non-statin lipid-altering treatment washout, and an LDL-C and TG qualifying period and (2) A 12-week, double-blind, randomized, placebo-controlled treatment period.
# After confirmation of qualifying fasting LDL-C and TG values, eligible patients entered a 12-week, randomized, double-blind treatment period. At Visit 4 (Week 0), patients were randomly assigned to 1 of the following treatment groups: • >96% E-EPA 2 g daily, • >96% E-EPA 4 g daily, or • Placebo.
# During the double-blind treatment period, patients were to take 2 capsules (>96% E-EPA or matching placebo) in the morning and 2 capsules in the evening for a total of 4 capsules per day. • Patients in the >96% E-EPA 2 g/day treatment group received 1>96% E-EPA 1 g capsule and 1 matching placebo capsule in the morning and in the evening. • Patients in the >96% E-EPA 4 g/day treatment group received 2>96% E-EPA 1 g capsules in the morning and evening.
# (§3) The primary efficacy variable for the double-blind treatment period was percent change in TG from baseline to Week 12 endpoint. The secondary efficacy variables for the double-blind treatment period included the following: • Percent changes in total cholesterol (TC), high-density lipoprotein cholesterol (HDL-C), LDL-C, calculated non-HDL-C, and very low-density lipoprotein cholesterol (VLDL-C) from baseline to Week 12 endpoint; • Percent change in very low-density lipoprotein TG from baseline to Week 12; • Percent changes in apolipoprotein A-I (apo A-I), apolipoprotein B (apo B), and apo A-I/apo B ratio from baseline to Week 12; • Percent changes in lipoprotein(a) from baseline to Week 12; • Percent changes in LDL particle number and size, measured by nuclear magnetic resonance, from baseline to Week 12; • Percent change in remnant-like particle cholesterol from baseline to Week 12; • Percent change in oxidized LDL from baseline to Week 12; • Changes in FPG and HbA1c from baseline to Week 12; • Change in insulin resistance, as assessed by the homeostasis model index insulin resistance, from baseline to Week 12; • Percent change in lipoprotein associated phospholipase A2 (Lp-PLA2) from baseline to Week 12; • Change in intracellular adhesion molecule-1 from baseline to Week 12; • Change in interleukin-2 from baseline to Week 12; • Change in plasminogen activator inhibitor-1 from baseline to Week 12. […]
# [2] = test system: fatty acid desaturation index (FADI), plasma; test: Fatty acid desaturation index (FADI) ratios in plasma, 12-week placebo-controlled study; assay type: in vivo, human; conditions: 4 g/day, 12 weeks, placebo-adjusted, from baseline
# Procedure: as §1
# as §2, with “ended. […]” for “ended.”
# as §3
# [3] = 4 g/day, Hodges-Lehmann median, listed as E-EPA
# [4] = listed as Ethyl Eicosapentaenoate
compound,measurement,setting,value
"CC/C=C\C/C=C\C/C=C\C/C=C\C/C=C\CCCC(=O)OCC [ethyl eicosapentaenoate, all-cis eicosa-5,8,11,14,17-pentaenoic acid ethyl ester]","HDL particle size, Placebo-Adjusted Median Change from Baseline 2 g/d, %","[1]; 2 g/day, Hodges-Lehmann median",0.0%
same,"LDL particle size, Placebo-Adjusted Median Change from Baseline 2 g/d, %","[1]; 2 g/day, Hodges-Lehmann median",+0.5%
same,"VLDL particle size, Placebo-Adjusted Median Change from Baseline 2 g/d, %","[1]; 2 g/day, Hodges-Lehmann median",−4.8%
same,"LDL particle size, % Δ","[1]; 2 g/day, n = 221",+0.5%
same,"HDL particle size, % Δ","[1]; 2 g/day, n = 222",0.0%
same,"VLDL particle size, % Δ","[1]; 2 g/day, n = 222",−5.0%
same,"LDL particle size, End","[1]; 2 g/day, n = 221",20.0 nm
same,"HDL particle size, End","[1]; 2 g/day, n = 222",8.6 nm
same,"VLDL particle size, End","[1]; 2 g/day, n = 222",53.2 nm
same,"HDL particle size, Placebo-Adjusted Median Change from Baseline 4 g/d, %","[1]; 4 g/day, Hodges-Lehmann median",significantly reduced
same,"LDL particle size, Placebo-Adjusted Median Change from Baseline 4 g/d, %","[1]; 4 g/day, Hodges-Lehmann median",modest but significant increase
same,"VLDL particle size, Placebo-Adjusted Median Change from Baseline 4 g/d, %","[1]; 4 g/day, Hodges-Lehmann median",significantly reduced
same,"HDL particle size, Placebo-Adjusted Median Change from Baseline 4 g/d, %",[1]; [3],−1.2%
same,"LDL particle size, Placebo-Adjusted Median Change from Baseline 4 g/d, %",[1]; [3],+0.5%
same,"VLDL particle size, Placebo-Adjusted Median Change from Baseline 4 g/d, %",[1]; [3],−7.7%
same,"LDL particle size, % Δ","[1]; 4 g/day, n = 215",+0.5%
same,"HDL particle size, % Δ","[1]; 4 g/day, n = 216",−1.1%
same,"VLDL particle size, % Δ","[1]; 4 g/day, n = 216",−8.1%
same,"LDL particle size, End","[1]; 4 g/day, n = 215",20.0 nm
same,"HDL particle size, End","[1]; 4 g/day, n = 216",8.6 nm
same,"VLDL particle size, End","[1]; 4 g/day, n = 216",51.2 nm
same,"FADI-16 (Palmitoleic acid/Palmitic acid, C16:1/C16:0) % Change, Plasma",[2],significantly reduced
same,"FADI-18 (Oleic acid/Stearic Acid, C18:1/C18:0) % Change, Plasma",[2],significantly reduced
same,"FADI-16 (Palmitoleic acid/Palmitic acid, C16:1/C16:0) % Change, Plasma",[2]; [4],−6.8%
same,"FADI-18 (Oleic acid/Stearic Acid, C18:1/C18:0) % Change, Plasma",[2]; [4],−9.8%
